How the values were obtained:
[1] = assessment of data of WO2018039378A1: crystal transformation, XRPD at different temperatures; cited from earlier work
[2] = Light stability of the crystal form (XRPD comparison); type: physicochemical; settings: 25° C., 4500 Lux, 5 days and 10 days, FIG. 13
Method: (§1) The crystal form X prepared in Example 5 is tested as follows.
(1) Light stability: the test sample is placed in an environment having a temperature of 25° C. and a light condition of 4500 Lux for 5 days and 10 days, respectively, to test the stability of the crystal form.

[3] = High-temperature stability of the crystal form (XRPD comparison); type: physicochemical; settings: 60° C., 5 days and 10 days, FIG. 14
Method: as §1
(2) High-temperature stability: the test sample is placed at a temperature of 60° C. for 5 days and 10 days, respectively, to test the stability of the crystal form.

[4] = Accelerated stability of the crystal form (XRPD comparison); type: physicochemical; settings: 75% RH, 40° C., 5 days and 10 days, FIG. 15
Method: as §1
(3) Accelerated stability: the test sample is placed in an environment having a humidity of 75% RH and a temperature of 40° C. for 5 days and 10 days, respectively, to test the stability of the crystal form.

[5] = High-humidity stability of the crystal form (XRPD comparison); type: physicochemical; settings: 92.5% RH, 25° C., 5 days and 10 days, FIG. 16
Method: as §1
(4) High-humidity stability: the test sample is placed in an environment having a humidity of 92.5% RH and a temperature of 25° C. for 5 days and 10 days, respectively, to test the stability of the crystal form.

[6] = Comparison of crystal form X with crystal form K (XRPD, FIG. 17; stability); type: physicochemical

Question: Which “Crystal form stability (suitability as medicinal crystal form)” value [1] does the source give for `C[C@@]1(O)CC[C@H]2[C@H](CC[C@@H]3[C@@H]2CC[C@]2(C)[C@@H](C(=O)Cn4cc(C#N)cn4)CC[C@@H]32)C1` [crystal form A, 3α-hydroxy-3β-methyl-21-(4-cyano-1H-pyrazol-1′-yl)-19-nor-5β-pregnan-20-one] here?
Answer: Its value is “unstable”.

Question: Which results are given for `C[C@@]1(O)CC[C@H]2[C@H](CC[C@@H]3[C@@H]2CC[C@]2(C)[C@@H](C(=O)Cn4cc(C#N)cn4)CC[C@@H]32)C1` [crystal form X, 3α-hydroxy-3β-methyl-21-(4-cyano-1H-pyrazol-1′-yl)-19-nor-5β-pregnan-20-one]?
Answer: Light stability of the crystal form [2]: good light stability; High-temperature stability of the crystal form [3]: good high-temperature stability; Accelerated stability of the crystal form [4]: good accelerated stability; High-humidity stability of the crystal form [5]: good high-humidity stability; Stability relative to crystal form K [6]: better stability than the crystal form K
